Here are results for 23 compounds from publication PMC8473292 (Viruses, 2021).

Series [1] deals with Vero cells.
Series [2] relates to rPEDV-NLuc. Kind of series: microbe, parasite or virus in culture. It counts as cell-based, Porcine epidemic diarrhea virus (PEDV) YN150 strain. The note with it: for IC50: Vero cells, rPEDV-NLuc MOI 0.01, 1 h pre-treatment, 1.25-10 μM, NLuc activity at 20 h post-infection; for SI: selective index from CC50 and IC50.
Series [3] is described as follows: in vitro. The note with it: African green monkey.
Series [4] relates to PEDV-induced ROS. Briefly: Detection of PEDV-induced intracellular ROS production with DCFH-DA. The note with it: 10 μM, wild-type PEDV MOI 0.01, Vero cells, 16 h post-infection. The series is classed as cell-based.
The test system of series [5] is wild-type PEDV. Kind of series: Confirmation of anti-PEDV activity with wild-type PEDV by TCID50 in Vero cells. The note with it: wild-type PEDV MOI 0.01, Vero cells, TCID50 and IFA; antioxidants 2.5, 5, 10 μM; NAC 50, 100, 200 μM. It counts as cell-based, Porcine epidemic diarrhea virus (PEDV).
[6] abbreviates: Porcine epidemic diarrhea virus, Vero.

Counter-ions that a name gives are not always drawn. Like-named read-outs stand apart in the source and are kept apart here.

Broadly, the IC50 is the concentration that gives 50% inhibition. Turning to `COc1cc(/C=C/c2ccc(O)c(O)c2)cc(OC)c1` [3′-Hydroxypterostilbene], the CC50 in series [1] (Vero cells, MTT assay) was > 100 µM. Besides, the half-maximal inhibitory concentration (IC50) in series [2] (read-out: IC50) came to 4.29 µM. Further, in series [2], the SI is on record as >23.29.

Take `CCc1c2c(nc3ccccc13)-c1cc3c(c(=O)n1C2)COC(=O)[C@]3(O)CC` [7-Ethylcamptothecin]: in series [1] (Vero cells, MTT assay), the CC50 is > 100 µM. In addition, the IC50 in series [2] (read-out: IC50) is < 1.25 µM. Further, the SI in series [2] is recorded as >80.

Turning to `COc1cc(O)cc(O)c1C(=O)/C=C/c1ccccc1` [(E)-Cardamonin], the CC50 in series [1] (Vero cells, MTT assay) is > 100 µM. For the same compound, the concentration for half-maximal inhibition (IC50) in series [2] (read-out: IC50) turned out to be 2.15 µM. Besides, in series [2], the SI is recorded as >46.44.

On to `C[C@@H]1[C@H](O)[C@@H](C)/C=C/C=C/C=C/C=C/C=C/C=C/C=C/[C@H](O[C@@H]2O[C@H](C)[C@@H](O)[C@H](N)[C@@H]2O)C[C@@H]2O[C@](O)(C[C@@H](O)C[C@@H](O)[C@H](O)CC[C@@H](O)C[C@@H](O)CC(=O)O[C@H]1C)C[C@H](O)[C@H]2C(=O)O` [Amphotericin B, reference compound], for which the CC50 in series [3] was > 100 µM. For the same compound, the IC50 in series [2] (setting [6]) is 2.91 µM. For the same compound, the SI in series [2] is >34.42.

Turning to `C=C(C)[C@@H]1CC[C@]2(C(=O)O)CC[C@]3(C)[C@H](CC[C@@H]4[C@@]5(C)CCC(=O)C(C)(C)[C@@H]5CC[C@]43C)[C@@H]12` [Betulonic acid], in series [1] (Vero cells, MTT assay), the CC50 came to 61.9 µM. Moreover, the 50% inhibitory concentration (IC50) in series [2] (read-out: IC50) is < 1.25 µM. Besides, the SI in series [2] is given as >49.52. Further, the “DCFH-DA fluorescence in PEDV-infected cells (fluorescence microscopy)” value (shortened to “DCFH-DA fluorescence”) in series [4] is listed as “only a few fluorescence signals were detected”.

With `O=C(/C=C/c1ccc(O)c(O)c1)OCCc1ccccc1` [Caffeic Acid Phenethyl Ester], the CC50 in series [3] was > 100 µM. The IC50 in series [2] (setting [6]) is 1.74 µM. The SI in series [2] is >57.63. For the same compound, in series [4], the “DCFH-DA fluorescence” value is reported as “only a few fluorescence signals were detected”.

Take `C[C@@]1(C(=O)O)CC[C@]2(C)CC[C@]3(C)C4=CC(=O)c5c(cc(O)c(O)c5C=O)[C@]4(C)CC[C@@]3(C)[C@@H]2C1` [Demethylzeylasteral]: in series [1], the CC50 came to 38.6 µM. In series [2] (read-out: IC50), the half-inhibitory concentration (IC50) turned out to be 2.37 µM. The compound also returned an SI in series [2] of 16.27.

`CC1=C(C(=O)OCCN(Cc2ccccc2)c2ccccc2)C(c2cccc([N+](=O)[O-])c2)C(P2(=O)OCC(C)(C)CO2)=C(C)N1` (centres unmarked) [Efonidipine, reference compound]: the CC50 in series [3] is > 100 µM. In addition, in series [2] (setting [6]), the IC50 amounted to 5.58 µM. For the same compound, the SI in series [2] was >17.93.

Regarding `Cc1cc(O)c2c(c1)C(=O)c1cc(O)cc(O)c1C2=O` [Emodin], in series [3], the CC50 is > 100 µM. For the same compound, the 50% inhibitory concentration (IC50) in series [2] (setting [6]) was 2.1 µM. The SI in series [2] is given as >50.

On to `O=c1ccc2cc(O)c(O)cc2o1` [Esculetin], for which the CC50 in series [3] is > 100 µM. The IC50 in series [2] (setting [6]) worked out at 5.97 µM. Moreover, in series [2], the SI was >16.75. The “DCFH-DA fluorescence” value in series [4] is reported as “only a few fluorescence signals were detected”.

For the compound `COc1ccc2c(c1)[nH]c1c(C)nccc12` [Harmine hydrochloride], in series [3], the CC50 is > 100 µM. The IC50 in series [2] (setting [6]) was determined as 1.33 µM. Besides, the SI in series [2] is listed as >75.04.

With `COc1ccc2c(c1)[nH]c1c(C)nccc12` [Harmine], in series [2], the IC50 was 1.96 µM and the SI is on record as >51.10.

In the case of `C=CC(C)(C)c1cc(/C=C/C(=O)c2ccc(O)cc2)c(OC)cc1O` [Licochalcone A], the CC50 in series [1] (Vero cells, MTT assay) was > 100 µM. Also, in series [2] (read-out: IC50), the half-inhibitory concentration (IC50) amounted to 4 µM. Also, the SI in series [2] is >25.

As to `C[C@H](CCC(=O)O)[C@H]1CC[C@H]2[C@@H]3CC[C@@H]4C[C@H](O)CC[C@]4(C)[C@H]3CC[C@]12C` [Lithocholic acid], in series [3], the CC50 was > 100 µM. Besides, the IC50 in series [2] (setting [6]) is 2.37 µM. Besides, the SI in series [2] is listed as >42.12. Moreover, the “DCFH-DA fluorescence” value in series [4] was “only a few fluorescence signals were detected”.

Regarding `CC(=O)N[C@@H](CS)C(=O)O` [NAC, N-acetyl-L-cysteine], the “inhibition of PEDV replication, dose dependence” value in series [5] was “exhibited anti-PEDV activity in a dose-dependent manner”.

For the compound `CC(Cc1ccc(O)c(O)c1)C(C)Cc1ccc(O)c(O)c1` (centres unmarked) [Nordihydroguaiaretic acid], the CC50 in series [1] (Vero cells, MTT assay) was > 100 µM. In addition, in series [2] (read-out: IC50), the concentration for half-maximal inhibition (IC50) was 5 µM. Further, the SI in series [2] is on record as >19.99. Further, in series [4], the “DCFH-DA fluorescence” value is reported as “only a few fluorescence signals were detected”.

In turn, `C=C1C(=O)[C@]23[C@H](O)[C@H]1CC[C@H]2[C@@]12CO[C@]3(O)[C@@H](O)[C@@H]1C(C)(C)CC[C@@H]2O` [Oridonin] registered a CC50 in series [3] of 35 µM. Further, the half-inhibitory concentration (IC50) in series [2] (setting [6]) was determined as 3 µM.

Turning to `C=CC1=C(C)c2cc3[nH]c(cc4nc(cc5[nH]c(cc1n2)c(C)c5CCC(=O)O)C(CCC(=O)O)=C4C)c(C)c3C=C` [Protoporphyrin IX], in series [3], the CC50 was > 100 µM. Further, the IC50 in series [2] (setting [6]) was < 1.25 µM. Further, in series [2], the SI is recorded as >80.

For the compound `CC[C@]12C=CCN3CC[C@]4(C(=C(C(=O)OC)C1)Nc1ccccc14)[C@@H]32.Cl` [Tabersonine hydrochloride], the CC50 in series [1] (Vero cells, MTT assay) came to 82.6 µM. In addition, in series [2] (read-out: IC50), the concentration for half-maximal inhibition (IC50) stood at 4.3 µM. This compound gave an SI in series [2] of 19.23.

In series [3], `C[C@H]1[C@H](C)CC[C@]2(C(=O)O)CC[C@]3(C)C(=CC[C@@H]4[C@@]5(C)CCC(=O)C(C)(C)[C@@H]5CC[C@]43C)[C@H]12` [Ursonic acid] had a CC50 of 41 µM. Besides, in series [2] (setting [6]), the 50% inhibitory concentration (IC50) was determined as 2.13 µM. The compound further returned an SI in series [2] of 19.23. In series [4], the “DCFH-DA fluorescence” value is “only a few fluorescence signals were detected”.

`Cc1cc2c(C(C)C)c(O)c(O)c(C=O)c2c(O)c1-c1c(C)cc2c(C(C)C)c(O)c(O)c(C=O)c2c1O` [gossypol-Acetic acid]: the CC50 in series [3] was > 100 µM. Also, the IC50 in series [2] (setting [6]) came out at 2.9 µM. Besides, the SI in series [2] was >30.

Take Tannic acid: in series [1] (Vero cells, MTT assay), the CC50 was > 100 µM. Besides, the IC50 in series [2] (read-out: IC50) was 4.37 µM. Besides, in series [2], the SI is on record as >22.89.

Tubeimoside I registered a CC50 in series [1] of 74.8 µM. In series [2] (read-out: IC50), the concentration for half-maximal inhibition (IC50) came out at 4.21 µM. The SI in series [2] was determined as 17.76.
